{
  "source": "patent US20080255244A1",
  "about": "“CaM Kinase II Inhibitor Improves Retinoic Acid Therapy and Inhibits the Proliferation of Myeloid Leukemia Cells” (Fred Hutchinson Cancer Research Center, priority 2007, published 2008)",
  "key": {"[1]": {"system": "K562 cells", "assay": "K562 proliferation in liquid suspension culture (cell counts)", "format": "cell-based, human", "conditions": "seeded at 5×10^4 cells/ml; cell counts", "method": "(A) K562 cells were seeded in liquid suspension culture at 5×10^4 cells/ml in the presence or absence of the indicated concentration of compounds, and cell counts were obtained at the indicated time.\nCell lines. All leukemia cell lines are cultured at 37° in RPMI supplemented with 5% heat-inactivated fetal calf serum."}, "[2]": {"system": "autophosphorylated CaMKIIγ in TonB210.1 cells", "assay": "bcr-abl induced CaMKII autophosphorylation in TonB210.1 cells (Western blot)", "format": "cell-based", "conditions": "TonB210.1 deprived of IL-3 for 24 hours, compound added with doxycycline"}, "[3]": {"system": "autophosphorylated CaMKIIγ in HL60 cells", "assay": "Western blot of CaMKIIγ autophosphorylation in HL60 cells", "format": "cell-based, human", "conditions": "phospho-T286/7 antibody, ATRA 1 μM, TPA 0.1 μM", "protocol": "(§1) FIG. 7. KN-62 regulates the differentiation of myeloid leukemia cell lines. (A) Wright Giemsa-stained HL-60 cells either (a) uninduced or treated for five days with (b) KN62 or (c) ATRA. (d) CD11b expression in HL-60 cells after five days exposure to KN62 (5 μM) or ATRA (1 μM). (B) Wright-Giemsa stained NB4 cells treated for five days with KN-62 (5 μM) and ATRA as indicated. […] (C) Cd11b expression of NB4 cells treated for five days with the indicated concentrations of RA and/or KN-62. (D) Western blots with the indicated antibodies were performed on HL60 cell lysates following incubation with KN62 for the indicated period of time. (E) Western blots of NB4 cell lysates following a five day incubation with the indicated compounds.\n(§2) FIG. 9. Terminal differentiation/apoptosis of myeloid leukemia cells is associated with decreased CaMKIIγ activation. (A) Lysates from the HL60, NB4 and U937 myeloid cell lines treated with ATRA (1 μM) for the indicated period of time were subjected to Western blots. (B) Lysates from the indicated myeloid cell lines treated for five days with the indicated concentration of ATRA were subjected to Western blots. (C) Lysates from HL60 cells treated with TPA (0.1 μM) for the indicated time were subjected to Western blots. (D) Lysates from NB4 cells treated with arsenic trioxide (1 uM) for the indicated time were subjected to Western blots.\n(§3) Protein extracts, Western blotting and co-immunoprecipitations. Westerns and co-immunoprecipitations were performed as previously detailed (Si, J., and Collins, S. J., Blood 100:4401-4409 (2002)).\n(§4) Antibodies and Western blots. Protein extracts, immunoprecipitations and Western blots were performed as previously detailed (Si J, Collins S J. IL-3-induced enhancement of retinoic acid receptor activity is mediated through Stat5, which physically associates with retinoic acid receptors in an IL-3-dependent manner. Blood 100: 4401-9 (2002)). Antibodies against CaMKI, CaMKIIγ, CaMKIV, c-myc, Stat3, Stat5, calmodulin, as well as the phosphospecific CaMKII (T286, 287) and phosphospecific CaMKI (T177) antibodies were from Santa Cruz Biotechnology. Antibodies against phospho-Stat1 (Ser727), phospho-Stat3 (Ser727 and Tyr 705), phospho-Stat5 (Tyr 694), phospho-p44/42 MAP kinase (Thr202/Tyr 204), p44/42 MAP kinase, phospho-p38 MAP kinase (Thr 180/Tyr 182), phospho-GSK3β (Ser9) were from Cell Signaling Technology. Antibodies against Stat1, GSK3β, β-catenin, PP2Ac, and cyclin D1 were from BD Biosciences."}, "[4]": {"system": "Stat3 transcriptional activity in K562 cells", "assay": "Stat3 response element luciferase reporter in K562 cells", "format": "cell-based, human", "conditions": "48 hours of culture", "protocol": "FIG. 13. Stat3 is directly phosphorylated and activated by CaMKIIγ at Ser727. (A, i). Cell lysates from the indicated human leukemia cell lines were subjected to Western blots utilizing the indicated Stat3 antibodies. ii). Cell lysates from the same primary AML samples depicted in FIG. 1B were subjected to Western blots utilizing the indicated Stat3 antibodies. B). The IL-3 dependent TonB210.1 cells were deprived of IL-3 for 24 hours. The cells were then treated with the indicated compounds immediately prior to the addition of doxycycline. After an additional 24 hours cell lysates were harvested and subjected to Western blots with the indicated Stat3 antibodies. C). K562 cells were electroporated with a luciferase reporter driven by a Stat3 response element. The indicated concentrations of KN93 and the Stat 3 inhibitor, cucurbitacin I, were added and relative luciferase activity determined on cell lysates following 48 hours of culture. D, i) K562 cell lysates were immunoprecipitated with control IgG or a Stat3 antibody. […]\nTransient transfections and luciferase assays. […] Stat3 transcriptional activity was determined in K562 cells transfected with the pSIE-tk-LUC luciferase reporter which harbors a Stat3 binding site ([…]). […]"}, "[5]": {"system": "autophosphorylated CaMKIIγ in K562 cells", "assay": "Western blot of CaMKIIγ autophosphorylation in K562 cells", "format": "cell-based, human", "conditions": "for activated, autophosphorylated CaMKIIγ level: gleevec 5 uM, ATRA five days", "protocol": "as §2\nFIG. 10. Inhibiting bcr-abl activity/expression inhibits CaMKIIγ activation. (A) Lysates from K562 cells undergoing growth arrest following treatment with gleevec (5 uM) for the indicated times were subjected to Western blots. (B) Lysates from TonB210.1 cells depleted of doxycycline for the indicated period of time were subjected to Western blots. (C) IL-3 dependent TonB210.1 cells were deprived of IL-3 for 24 hours (lane 1). The cells were then treated with the indicated compounds simultaneously with the addition of doxycycline (lanes 2-8). After 24 hours cell lysates were harvested and subjected to Western blots with the indicated CaMKII antibodies. (D) K562 cells were cultured for 48 hours with the indicated chemical inhibitors of specific signal transduction pathways. Cell lysates were harvested and subjected to Western blot analysis.\nFIG. 12. CaMKII regulates multiple signal transduction pathways in myeloid cells. (A,B) Lysates from K562 cells cultured for the indicated time in KN93 were subjected to Western blots. (C) The K562 cells transduced as described in Materials and Methods with either (i) the doxycycline (DOX) inducible expression vector/transactivator harboring the full length, Lys^43 mutated, kinase dead CaMKIIγ (kdCaMKIIγ (Tet-on)) or (ii) the CaMKII shRNA generating plasmids, were cultured in liquid suspension in the presence or absence of DOX as indicated, and cell counts obtained after 48 hours. (D) Lysates from K562 cells transduced with the indicated vectors were subjected to Western blots utilizing the indicated antibodies. For lanes 2 and 4 doxycycline (DOX) treatment was for two days.\nas §4"}, "[6]": {"system": "RAR transcriptional activity in HL60 cells", "assay": "RARE-driven luciferase reporter in HL60 cells", "format": "cell-based, human", "conditions": "six hours after treatment with ionomycin and ATRA", "protocol": "FIG. 1. CaM kinase isoform expression in hematopoietic cells. (A) The activity of an ATRA-responsive luciferase reporter (βRARE-tk-Luc, 25 μg) was assessed in electroporated HL60 cells six hours after treatment with the indicated concentrations of ionomycin and ATRA. (B) The activity of the luciferase reporter (βRARE-tk-Luc, 25 μg) was assessed in HL60 six hours after treatment with KN62 (5 uM), KN93 (5 uM) and ATRA (1 uM). (C) Western blots were performed utilizing the indicated antibodies. F9 (column 6) is a mouse embryonal carcinoma cell line. BaF3 (column 7) is a cultured pre-B cell line. BM cells (column 8) are kit-ligand dependent normal murine hematopoietic precursors. PT67 murine fibroblasts individually transduced with either rat CaMKIIα, human CaMKIα or human CaMKIV (column 9) together with brain lysates (column 1) serve as positive controls for the respective antibodies. (D) CaMK assays were performed on HL-60 cell lysates immunoprecipitated with the indicated antibodies.\nTransient transfections and luciferase assays. Murine PT67 fibroblasts were transfected utilizing calcium phosphate precipitation. All hematopoietic cell lines were transiently transfected by electroporation as previously detailed (Johnson, B. et al., Molecular and Cellular Biology 19:3372-3382 (1999)). In the transient transfections the LXSN vector (M28248) served as the expression vector for the wild type and site-directed mutagenized CaMKII and RARα coding region cDNAs. Human cDNA homologous to the coding region of rat CaMKIINα, a CaMKII inhibitory protein, was obtained by RT-PCR from HL60 RNA and cloned into the LXSN vector. The RA-responsive luciferase reporter harbors the RARE from the RARβ2 promoter as previously detailed (Si, J., and Collins, S. J., Blood 100:4401-4409 (2002)). The PON838 plasmid, a β-galactosidase reporter driven by the β-actin promoter, was used as an internal control to determine transfection efficiency for calculating relative luciferase activity."}, "[7]": {"system": "autophosphorylated CaMKIIγ in NB4 cells", "assay": "Western blot of CaMKIIγ autophosphorylation in NB4 cells", "format": "cell-based, human", "conditions": "single agent, ATRA 1 μM, arsenic trioxide 1 uM", "protocol": "as §1, §2, §3, §4"}},
  "note": "Entries after “also recorded” stand apart in the source; their conditions may differ.",
  "data": [
    {"molecule": "O=C(O)c1ccc2c3c1cccc3c(=O)n1c3ccccc3nc21", "note": "[STO609]", "values": [
      {"measurement": "K562 cell proliferation", "setting": "[1]", "result": "did not significantly inhibit; also recorded: minimal effects"},
      {"measurement": "bcr-abl (tet/doxycycline) restored CaMKII autophosphorylation", "setting": "[2]", "result": "not inhibited"}
    ]},
    {"molecule": "CCCCCCCCCCCCCC(=O)O[C@@H]1[C@@H](C)[C@@]2(O)[C@@H](C=C(CO)C[C@]3(O)C(=O)C(C)=C[C@@H]23)[C@@H]2C(C)(C)[C@]12OC(C)=O", "note": "[TPA, phorbol myristate acetate]", "values": [
      {"measurement": "activated, autophosphorylated CaMKIIγ level", "setting": "[3]", "result": "marked decrease"}
    ]},
    {"molecule": "CC(C)(O)/C=C/C(=O)[C@](C)(O)[C@H]1[C@H](O)C[C@@]2(C)[C@@H]3CC=C4[C@@H](C=C(O)C(=O)C4(C)C)[C@]3(C)C(=O)C[C@]12C", "note": "[cucurbitacin I]", "values": [
      {"measurement": "Stat3 responsive reporter activity", "setting": "[4]", "result": "inhibit"}
    ]},
    {"molecule": "Cc1ccc(NC(=O)c2ccc(CN3CCN(C)CC3)cc2)cc1Nc1nccc(-c2cccnc2)n1", "note": "[imatinib]", "values": [
      {"measurement": "K562 cell proliferation", "setting": "[1]", "result": "proliferative arrest"},
      {"measurement": "total CaMKIIγ level", "setting": "[5]", "result": "no significant change"},
      {"measurement": "activated, autophosphorylated CaMKIIγ level", "setting": "[5]", "result": "rapid, marked decrease"},
      {"measurement": "activated, autophosphorylated CaMKIIγ level", "setting": "[5]; listed as gleevec", "result": "downregulation"}
    ]},
    {"molecule": "C[C@H](CCC(=O)O)C[C@H](C)C[C@H](C)C(=O)/C=C(\\O)[C@H](C)C[C@H](C)C/C=C/[C@@H](C)[C@@H](O)[C@@H](C)[C@@H](O)C[C@@H]1CC[C@@](C)([C@H]2CC[C@@](C)([C@@H](C)O)O2)O1", "note": "[ionomycin]", "values": [
      {"measurement": "ATRA-induced activity of RARE-driven luciferase reporter", "setting": "[6]", "result": "inhibited"}
    ]},
    {"molecule": "KN92", "values": [
      {"measurement": "K562 cell proliferation", "setting": "[1]", "result": "did not significantly inhibit"}
    ]},
    {"molecule": "arsenic trioxide", "values": [
      {"measurement": "activated, autophosphorylated CaMKIIγ level", "setting": "[7]", "result": "downregulation"}
    ]}
  ]
}
